Counter-ions that a name gives are not always drawn.
System: NQO1 specific enzyme activity in BEAS-2B cells
Assay: BEAS-2B NQO1 MTT assay
Type: cell-based
Details: Homo sapiens, BEAS-2B, 48 h, NQO1 specific enzyme activity induction in BEAS-2B cells, 48 hours; read-out: EC50
Excerpt: NAD(P)H:quinone oxidoreductase 1 (NQO1), also called DT diaphorase, is a homodimeric FAD-containing enzyme that catalyzes obligatory NAD(P)H-dependent two-electron reductions of quinones and protects cells against the toxic and neoplastic effects of free radicals and reactive oxygen species arising from one-electron reductions. The transcription of NQO1 is finely regulated by NRF2, and thus NQO1 activity is a good marker for NRF2 activation. On day one, frozen BEAS-2B cells (ATCC) are thawed in a water bath, counted, and re-suspended at a concentration of 250,000 cells/mL. Fifty microliters of cells are plated in 384 well black clear-bottomed plates. Plates are incubated at 37° C., 5% CO2 overnight. On day two, plates are centrifuged and 50 nL of compound or controls are added to the cells. Plates are then incubated at 37° C., 5% CO2 for 48 hours. On day four, medium is aspirated from the plate and crude cell lysates are made by adding 13 uL of 1× Cell Signaling Technologies lysis buffer with 1 Complete, Mini, EDTA-free Protease Inhibitor Tablet (Roche) for each 10 mL of lysis buffer. After lysis plates are incubated for 20 minutes at room temperature. Two microliters of lysate are removed for use in Cell Titer Glo assay (Promega) and MTT cocktail is prepared (Prochaska et. al. 1998) for measurement of NQO1 activity. Fifty microliters of MTT cocktail is added to each well, plate is centrifuged, and analyzed on an Envision plate reader (Perkin Elmer) using Absorbance 570 nm label for 30 minutes. Product formation is measured kinetically and the pEC50 of NQO1 specific activity induction is calculated by plotting the change in absorbance (Delta OD/min) versus the log of compound concentration followed by 3-parameter fitting.
EC50s<1 nM (+++++), EC50s 10 nM-1 nM (++++), EC50s 10-100 nM (+++), EC50s 100 nM-1 uM (++), EC50s 1 uM-10 uM (+), EC50s>10 uM (−), or were not determined (ND).

Row | Compound | EC50
1 | Cc1c(C(c2ccc3c(c2)C(N2Cc4ccccc4OC(C)(C)C2)CC3)C(C)(C)C(=O)O)ccc2c1nnn2C (stereo not drawn) [Example 27, 3-(1,4-Dimethyl-1H-benzo[d][1,2,3]triazol-5-yl)-3-(3-(2,2-dimethyl-2,3-dihydrobenzo[f][1,4]oxazepin-4(5H)-yl)-2,3-dihydro-1H-inden-5-yl)-2,2-dimethylpropanoic Acid, 2 Formic Acid Salt] | < 1 nM
2 | Cc1c(C(CC(=O)O)c2ccc3c(c2)C(N2Cc4cc(C#N)ccc4OC(C)(C)C2)CC3)ccc2c1nnn2C (stereo not drawn) [Example 28, 3-(3-(7-Cyano-2,2-dimethyl-2,3-dihydrobenzo[f][1,4]oxazepin-4(5H)-yl)-2,3-dihydro-1H-inden-5-yl)-3-(1,4-dimethyl-1H-benzo[d][1,2,3]triazol-5-yl)propanoic Acid, Formic Acid Salt] | < 1 nM
3 | COc1cc(C(CC(=O)O)c2ccc3c(c2)C(N2Cc4ccccc4OC(C)(C)C2)CC3)c(C)c2nnn(C)c12 (stereo not drawn) [Example 29, 3-(3-(2,2-Dimethyl-2,3-dihydrobenzo[f][1,4]oxazepin-4(5H)-yl)-2,3-dihydro-1H-inden-5-yl)-3-(7-methoxy-1,4-dimethyl-1H-benzo[d][1,2,3]triazol-5-yl)propanoic Acid, Formic Acid Salt] | < 1 nM
4 | CC[C@@H]1CN(C2CCc3ccc(C(c4ccc5c(nnn5C)c4C)C(C)(C)C(=O)O)cc32)Cc2ccccc2O1 (stereo partly drawn) [Example 30, 3-(1,4-Dimethyl-1H-benzo[d][1,2,3]triazol-5-yl)-3-(3-((R)-2-ethyl-2,3-dihydrobenzo[f][1,4]oxazepin-4(5H)-yl)-2,3-dihydro-1H-inden-5-yl)-2,2-dimethylpropanoic Acid, Formic Acid Salt] | 1 to 10 nM
5 | Cc1ccc2c(c1)CN(C1CCc3ccc(C(c4ccc5c(nnn5C)c4C)C(C)(C)C(=O)O)cc31)C[C@@H](C)O2 (stereo partly drawn) [Example 31, 3-(1,4-Dimethyl-1H-benzo[d][1,2,3]triazol-5-yl)-3-(3-((R)-2,7-dimethyl-2,3-dihydrobenzo[f][1,4]oxazepin-4(5H)-yl)-2,3-dihydro-1H-inden-5-yl)-2,2-dimethylpropanoic Acid, Formic Acid Salt] | 1 to 10 nM
6 | Cc1c(C(c2ccc3c(c2)C(N2Cc4ccccc4O[C@H](C)C2)CC3)C(C)(C)C(=O)O)ccc2c1nnn2C (stereo partly drawn) [Example 32, 3-(1,4-Dimethyl-1H-benzo[d][1,2,3]triazol-5-yl)-2,2-dimethyl-3-(3-((R)-2-methyl-2,3-dihydrobenzo[f][1,4]oxazepin-4(5H)-yl)-2,3-dihydro-1H-inden-5-yl)propanoic Acid, Formic Acid Salt] | 1 to 10 nM
7 | Cc1c(C(c2ccc3c(c2)C(N2Cc4cnccc4OC(C)(C)C2)CC3)C(C)(C)C(=O)O)ccc2c1nnn2C (stereo not drawn) [Example 33, 3-(1,4-Dimethyl-1H-benzo[d][1,2,3]triazol-5-yl)-3-(3-(2,2-dimethyl-2,3-dihydropyrido[3,4-f][1,4]oxazepin-4(5H)-yl)-2,3-dihydro-1H-inden-5-yl)-2,2-dimethylpropanoic Acid, Trifluoroacetic Acid Salt] | 1 to 10 nM
8 | Cc1c(C(c2ccc3c(c2)C(N2Cc4cccnc4OC(C)(C)C2)CC3)C(C)(C)C(=O)O)ccc2c1nnn2C (stereo not drawn) [Example 34, 3-(1,4-Dimethyl-1H-benzo[d][1,2,3]triazol-5-yl)-3-(3-(2,2-dimethyl-2,3-dihydropyrido[3,2-f][1,4]oxazepin-4(5H)-yl)-2,3-dihydro-1H-inden-5-yl)-2,2-dimethylpropanoic acid, Formic Acid Salt] | 1 to 10 nM
9 | Cc1c(C(CC(=O)O)c2ccc3c(c2)C(N2Cc4ccc(C#N)cc4OC(C)(C)C2)CC3)ccc2c1nnn2C (stereo not drawn) [Example 35, 3-(3-(8-Cyano-2,2-dimethyl-2,3-dihydrobenzo[f][1,4]oxazepin-4(5H)-yl)-2,3-dihydro-1H-inden-5-yl)-3-(1,4-dimethyl-1H-benzo[d][1,2,3]triazol-5-yl)propanoic Acid, Formic Acid Salt] | 1 to 10 nM
10 | COc1cc(C(CC(=O)O)c2ccc3c(c2)C(N2Cc4cnccc4OC(C)(C)C2)CC3)c(C)c2nnn(C)c12 (stereo not drawn) [Example 36, 3-(3-(2,2-Dimethyl-2,3-dihydropyrido[3,4-f][1,4]oxazepin-4(5H)-yl)-2,3-dihydro-1H-inden-5-yl)-3-(7-methoxy-1,4-dimethyl-1H-benzo[d][1,2,3]triazol-5-yl)propanoic Acid, Formic Acid Salt] | 1 to 10 nM
11 | CC[C@@H]1CN(C2CCc3ccc(C(c4ccc5c(nnn5C)c4C)C(C)(C)C(=O)O)cc32)Cc2cnccc2O1 (stereo partly drawn) [Example 37, 3-(1,4-Dimethyl-1H-benzo[d][1,2,3]triazol-5-yl)-3-(3-((R)-2-ethyl-2,3-dihydropyrido[3,4-f][1,4]oxazepin-4(5H)-yl)-2,3-dihydro-1H-inden-5-yl)-2,2-dimethylpropanoic Acid, Formic Acid Salt] | 1 to 10 nM
12 | Cc1c(C(c2ccc3c(c2)C(N2CCOc4ccccc4C2)CC3)C(C)(C)C(=O)O)ccc2c1nnn2C (stereo not drawn) [Example 38, 3-(3-(2,3-Dihydrobenzo[f][1,4]oxazepin-4(5H)-yl)-2,3-dihydro-1H-inden-5-yl)-3-(1,4-dimethyl-1H-benzo[d][1,2,3]triazol-5-yl)-2,2-dimethylpropanoic Acid, Formic Acid Salt] | 1 to 10 nM
13 | COc1cc(C(CC(=O)O)c2ccc3c(c2)C(N2Cc4cc(C)ccc4O[C@H](C)C2)CC3)c(C)c2nnn(C)c12 (stereo partly drawn) [Example 39, 3-(3-((R)-2,7-Dimethyl-2,3-dihydrobenzo[f][1,4]oxazepin-4(5H)-yl)-2,3-dihydro-1H-inden-5-yl)-3-(7-methoxy-1,4-dimethyl-1H-benzo[d][1,2,3]triazol-5-yl)propanoic Acid, Formic Acid Salt] | 1 to 10 nM
14 | Cc1c(C(CC(=O)O)c2ccc3c(c2)C(N2Cc4ccccc4OC(C)(C)C2)CC3)ccc2c1nnn2C (stereo not drawn) [Example 40, 3-(1,4-Dimethyl-1H-benzo[d][1,2,3]triazol-5-yl)-3-(3-(2,2-dimethyl-2,3-dihydrobenzo[f][1,4]oxazepin-4(5H)-yl)-2,3-dihydro-1H-inden-5-yl)propanoic Acid, Formic Acid Salt] | 1 to 10 nM
15 | Cc1c(C(c2ccc3c(c2)C(N2Cc4cccnc4O[C@H](C)C2)CC3)C(C)(C)C(=O)O)ccc2c1nnn2C (stereo partly drawn) [Example 42, 3-(1,4-Dimethyl-1H-benzo[d][1,2,3]triazol-5-yl)-2,2-dimethyl-3-(3-((R)-2-methyl-2,3-dihydropyrido[3,2-f][1,4]oxazepin-4(5H)-yl)-2,3-dihydro-1H-inden-5-yl)propanoic Acid, Formic Acid Salt] | 1 to 10 nM
16 | COc1cc(C(CC(=O)O)c2ccc3c(c2)C(N2Cc4ccccc4OC(C)(C)C2)CC3)cc2nnn(C)c12 (stereo not drawn) [Example 43, 3-(3-(2,2-Dimethyl-2,3-dihydrobenzo[f][1,4]oxazepin-4(5H)-yl)-2,3-dihydro-1H-inden-5-yl)-3-(7-methoxy-1-methyl-1H-benzo[d][1,2,3]triazol-5-yl)propanoic Acid, Formate Salt] | 1 to 10 nM
17 | COc1cc(C(CC(=O)O)c2ccc3c(c2)C(N2Cc4cccnc4OC(C)(C)C2)CC3)c(C)c2nnn(C)c12 (stereo not drawn) [Example 44, 3-(3-(2,2-Dimethyl-2,3-dihydropyrido[3,2-f][1,4]oxazepin-4(5H)-yl)-2,3-dihydro-1H-inden-5-yl)-3-(7-methoxy-1,4-dimethyl-1H-benzo[d][1,2,3]triazol-5-yl)propanoic Acid, Formic Acid Salt] | 1 to 10 nM

Same assay, conditions: Homo sapiens, BEAS-2B, NQO1 specific enzyme activity in BEAS-2B cells; in some determinations; read-out: EC50 values in some determinations

Row | Compound | EC50
18 | Cc1c(C(c2ccc3c(c2)C(N2Cc4ccccc4OC(C)(C)C2)CC3)C(C)(C)C(=O)O)ccc2c1nnn2C (stereo not drawn) [Example 27, 3-(1,4-Dimethyl-1H-benzo[d][1,2,3]triazol-5-yl)-3-(3-(2,2-dimethyl-2,3-dihydrobenzo[f][1,4]oxazepin-4(5H)-yl)-2,3-dihydro-1H-inden-5-yl)-2,2-dimethylpropanoic Acid, 2 Formic Acid Salt] | < 0.17 nM

Reference: patent US10272095B2 (GlaxoSmithKline Intellectual Property Development Limited, priority 2015, dated 2019)
